From patent publication US20150031674A1, “SERINE/THREONINE KINASE INHIBITORS” (GENENTECH, INC., priority 2013, published 2015) come the findings set out here.

One may read the Ki as the dissociation constant of the complex between target and ligand, obtained from inhibition or displacement.

For this assay, the target named is human recombinant PAK1-KD protein (Homo sapiens, UniProt Q13153). Kind of assay: PAK1-KD (Kinase Domain) IC50 Zlyte Assay (FRET peptide substrate phosphorylation). The note with it: Z'-LYTE, Biological Example 1.
human recombinant PAK1-KD protein, sequence (Q13153 270-521 limits assumed): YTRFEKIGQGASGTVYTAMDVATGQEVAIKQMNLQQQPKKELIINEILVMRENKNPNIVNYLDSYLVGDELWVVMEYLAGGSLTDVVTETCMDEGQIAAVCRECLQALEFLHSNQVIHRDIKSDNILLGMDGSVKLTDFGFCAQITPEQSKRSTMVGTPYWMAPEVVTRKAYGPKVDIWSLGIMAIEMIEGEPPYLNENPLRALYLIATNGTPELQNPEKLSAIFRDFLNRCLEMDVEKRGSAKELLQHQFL
For `CNc1ncc2cc(-c3ccc(-c4cccc(C)n4)cc3C)c(=O)n(CCCO)c2n1` [Example I-132, 8-(3-hydroxypropyl)-2-(methylamino)-6-[2-methyl-4-(6-methyl-2-pyridyl)phenyl]pyrido[2,3-d]pyrimidin-7-one], the Ki is 14.5 nM.

Consider `CCNc1ncc2cc(-c3ccc(-c4cccc(C)n4)cc3C)c(=O)n(CCC3CNCCO3)c2n1` (single isomer, unassigned) [Example I-115], for which the Ki is 1.4 nM.

For the compound `CCNc1ncc2cc(-c3ccc(-c4cncc(C)n4)cc3Cl)c(=O)n(C(C)COC3CNC3)c2n1` (single isomer, unassigned) [Example I-118, 8-[2-(azetidin-3-yloxy)-1-methyl-ethyl]-6-[2-chloro-4-(6-methylpyrazin-2-yl)phenyl]-2-(ethylamino)pyrido[2,3-d]pyrimidin-7-one], the Ki came to 18.3 nM.

With `CNc1ncc2cc(-c3ccc(-c4ncn(C)n4)cc3Cl)c(=O)n(C[C@H]3CNCCO3)c2n1` [Example I-192, 6-[2-chloro-4-(1-methyl-1 2 4-triazol-3-yl)phenyl]-2-(methylamino)-8-[[(2R)-morpholin-2-yl]methyl]pyrido[2,3-d]pyrimidin-7-one], the Ki came out at 4400 nM.

For `CNc1ncc2cc(-c3ccc(-c4cccc(C)n4)cc3Cl)c(=O)n(CC3CCN(C)CC3)c2n1` [Example I-175, 6-[2-chloro-4-(6-methyl-2-pyridyl)phenyl]-2-(methylamino)-8-[(1-methyl-4-piperidyl)methyl]pyrido[2,3-d]pyrimidin-7-one], the Ki was 19.8 nM.

Turning to `CNc1ncc2cc(-c3ccc(-c4cccc(C)n4)cc3Cl)c(=O)n(CC[C@H]3OC[C@H](N)CO3)c2n1` [Example I-137, 8-[2-(5-amino-1,3-dioxan-2-yl)ethyl]-6-[2-chloro-4-(6-methyl-2-pyridyl)phenyl]-2-(methylamino)pyrido[2,3-d]pyrimidin-7-one], the Ki is 0.92 nM.

As for `CCNc1ncc2cc(-c3ccc(-c4cncc(C)n4)cc3Cl)c(=O)n(CCN3CCNCC3=O)c2n1` [Example I-90, 6-[2-Chloro-4-(6-methylpyrazin-2-yl)phenyl]-2-(ethylamino)-8-[2-(2-oxopiperazin-1-yl)ethyl]pyrido[2,3-d]pyrimidin-7-one], the Ki worked out at 322 nM.

Regarding `CNc1ncc2cc(-c3ccc(-c4cncc(C)n4)cc3Cl)c(=O)n(C3CCS(=N)(=O)CC3)c2n1` (centres unmarked) [Example I-181, 6-[2-chloro-4-(6-methylpyrazin-2-yl)phenyl]-8-(1-imino-1-oxo-thian-4-yl)-2-(methylamino)pyrido[2,3-d]pyrimidin-7-one], the Ki amounted to 110 nM.

In the case of `CNc1ncc2cc(-c3ccc(-c4cncc(C)n4)cc3Cl)c(=O)n(CCCCN)c2n1` [Compound I-42, 8-(4-aminobutyl)-6-[2-chloro-4-(6-methylpyrazin-2-yl)phenyl]-2-(methylamino)pyrido[2,3-d]pyrimidin-7-one], the inhibitory constant (Ki) turned out to be 23.2 nM.

`CNc1ncc2cc(-c3ccc(-c4cncc(C)n4)cc3Cl)c(=O)n(C[C@H]3OC[C@H](N)CO3)c2n1` [Example I-145, 8-[(5-Amino-1,3-dioxan-2-yl)methyl]-6-[2-chloro-4-(6-methylpyrazin-2-yl)phenyl]-2-(methylamino)pyrido[2,3-d]pyrimidin-7-one]: the Ki was 8.54 nM.

In the case of `CNc1ncc2cc(-c3ccc(-c4cccc(C)n4)cc3C)c(=O)n(C[C@H]3CNCCO3)c2n1` [Example I-148, 2-(Methylamino)-6-[2-methyl-4-(6-methyl-2-pyridyl)phenyl]-8-[[(2R)-morpholin-2-yl]methyl]pyrido[2,3-d]pyrimidin-7-one], the Ki is 7.3 nM.

Turning to `CNc1ncc2cc(-c3ccc(-c4cccc(C)n4)cc3C)c(=O)n(C[C@@H]3CNCCO3)c2n1` [Example I-171, 6-(2-methyl-4-(6-methylpyridin-2-yl)phenyl)-2-(methylamino)-8-[[(2S)-morpholin-2-yl]methyl]pyrido[2,3-d]pyrimidin-7(8H)-one], the inhibition constant (Ki) is 5 nM.

For the compound `CNc1ncc2cc(-c3ccc(-c4csc(C)n4)cc3Cl)c(=O)n(C[C@H]3OC[C@H](N)CO3)c2n1` [Example I-190, 8-[(5-amino-1,3-dioxan-2-yl)methyl]-6-[2-chloro-4-(2-methylthiazol-4-yl)phenyl]-2-(methylamino)pyrido[2,3-d]pyrimidin-7-one], the Ki worked out at 15.2 nM.

Turning to `CCNc1ncc2cc(-c3ccc(-c4cccc(C)n4)cc3Cl)c(=O)n(C3COC4(CCNC4)C3)c2n1` (centres unmarked) [Example I-121, 6-[2-Chloro-4-(6-methyl-2-pyridyl)phenyl]-2-(ethylamino)-8-(1-oxa-7-azaspiro[4.4]nonan-3-yl)pyrido[2,3-d]pyrimidin-7-one], the inhibitory constant (Ki) came out at 3.7 nM.

Regarding `CCNc1ncc2cc(-c3ccc(-c4cncc(C)n4)cc3Cl)c(=O)n(CCCCO)c2n1` [Example I-36, 6-[2-Chloro-4-(6-methylpyrazin-2-yl)phenyl]-2-(ethylamino)-8-(4-hydroxybutyl)pyrido[2,3-d]pyrimidin-7-one], the Ki amounted to 71.8 nM.

For `CNc1ncc2cc(-c3ccc(-c4cccc(C)n4)cc3Cl)c(=O)n(C[C@H]3[C@@H]4CN(C)C[C@@H]43)c2n1` [Example I-176, 6-[2-chloro-4-(6-methyl-2-pyridyl)phenyl]-2-(methylamino)-8-[[(1R,5S)-3-methyl-3-azabicyclo[3.1.0]hexan-6-yl]methyl]pyrido[2,3-d]pyrimidin-7-one], the Ki is 11 nM.

On to `CNc1ncc2cc(-c3ccc(-c4cncc(C)n4)cc3Cl)c(=O)n(CC(=O)N[C@H]3CCNC3)c2n1` [Example I-142, 2-[6-[2-chloro-4-(6-methylpyrazin-2-yl)phenyl]-2-(methylamino)-7-oxo-pyrido[2,3-d]pyrimidin-8-yl]-N-[(3S)-pyrrolidin-3-yl]acetamide], for which the Ki turned out to be 14 nM.

In the case of `Cc1cccc(-c2ccc(-c3cc4cnc(NC5COC5)nc4n(CCS(N)(=O)=O)c3=O)c(C)c2)n1` [Example I-166], the Ki amounted to 17 nM.

In the case of `CNc1ncc2cc(-c3ccc(-c4cncc(C)n4)cc3Cl)c(=O)n(CCN3CCOCC3)c2n1` [Example I-158, 6-[2-chloro-4-(6-methylpyrazin-2-yl)phenyl]-2-(methylamino)-8-(2-morpholinoethyl)pyrido[2,3-d]pyrimidin-7-one], the Ki was 78.2 nM.

`CNc1ncc2cc(-c3ccc(-c4cccc(C)n4)cc3Cl)c(=O)n(C[C@@H]3CN(C)CCO3)c2n1` [Example I-183, 6-[2-chloro-4-(6-methyl-2-pyridyl)phenyl]-2-(methylamino)-8-[[(2S)-4-methylmorpholin-2-yl]methyl]pyrido[2,3-d]pyrimidin-7-one]: the Ki was 26.8 nM.

With `CCNc1ncc2cc(-c3ccc(-c4cncc(C)n4)cc3Cl)c(=O)n(CCOC3CCNC3)c2n1` (single isomer, unassigned) [Example I-51], the Ki amounted to 13.2 nM.

Consider `CCNc1ncc2cc(-c3ccc(-c4cncc(C)n4)cc3Cl)c(=O)n(CCC3CNCCO3)c2n1` (single isomer, unassigned) [Example I-21], for which the Ki was found to be 9.8 nM.

`CCNc1ncc2cc(-c3ccc(-c4cncc(C)n4)cc3Cl)c(=O)n(CCC3CCCN3)c2n1` (single isomer, unassigned) [Example I-20]: the Ki stood at 20.4 nM.

Turning to `CNc1ncc2cc(-c3ccc(-c4cccc(CO)n4)cc3Cl)c(=O)n(C[C@@H]3CNCCO3)c2n1` [Example I-195, 6-[2-Chloro-4-[6-(hydroxymethyl)-2-pyridyl]phenyl]-2-(methylamino)-8-[[(2S)-morpholin-2-yl]methyl]pyrido[2,3-d]pyrimidin-7-one], the Ki is 35.4 nM.

With `Cc1cncc(-c2ccc(-c3cc4cnc(NC(C)C)nc4n(CCC4CNC(=O)C4)c3=O)c(Cl)c2)n1` (single isomer, unassigned) [Example I-99, 6-[2-Chloro-4-(6-methylpyrazin-2-yl)phenyl]-2-(isopropylamino)-8-[2-(5-oxopyrrolidin-3-yl)ethyl]pyrido[2,3-d]pyrimidin-7-one], the Ki was 19.1 nM.

As to `CCNc1ncc2cc(-c3ccc(-c4cncc(C)n4)cc3Cl)c(=O)n(C(C)COC3CNC3)c2n1` (single isomer, unassigned) [Example I-119, 8-[2-(azetidin-3-yloxy)-1-methyl-ethyl]-6-[2-chloro-4-(6-methylpyrazin-2-yl)phenyl]-2-(ethylamino)pyrido[2,3-d]pyrimidin-7-one], the Ki turned out to be 77 nM.

For `Cc1cccc(-c2ccc(-c3cc4cnc(NC5COC5)nc4n(C[C@H]4CNCCO4)c3=O)c(Cl)c2)n1` [Example I-159, 6-[2-Chloro-4-(6-methyl-2-pyridyl)phenyl]-8-[[(2R)-morpholin-2-yl]methyl]-2-(oxetan-3-ylamino)pyrido[2,3-d]pyrimidin-7-one], the inhibitory constant (Ki) was found to be 10.8 nM.

For `Cc1cncc(-c2ccc(-c3cc4cnc(N)nc4n(C[C@H]4OC[C@H](N)CO4)c3=O)c(Cl)c2)n1` [Example I-163, 2-amino-8-[(5-amino-1,3-dioxan-2-yl)methyl]-6-[2-chloro-4-(6-methylpyrazin-2-yl)phenyl]pyrido[2,3-d]pyrimidin-7-one], the Ki came to 26.9 nM.

Turning to `CCNCC(O)Cn1c(=O)c(-c2ccc(-c3cncc(C)n3)cc2Cl)cc2cnc(NCC)nc21` (centres unmarked) [Example I-25, 6-[2-chloro-4-(6-methylpyrazin-2-yl)phenyl]-2-(ethylamino)-8-[3-(ethylamino)-2-hydroxy-propyl]pyrido[2,3-d]pyrimidin-7-one], the Ki was determined as 67.1 nM.

As for `Cc1cccc(-c2ccc(-c3cc4cnc(NC5COC5)nc4n(CCCS(N)(=O)=O)c3=O)c(C)c2)n1` [Example I-161, 3-[6-[2-methyl-4-(6-methyl-2-pyridyl)phenyl]-2-(oxetan-3-ylamino)-7-oxo-pyrido[2,3-d]pyrimidin-8-yl]propane-1-sulfonamide], the Ki was 22 nM.

In the case of `CCc1cc(-c2cncc(C)n2)ccc1-c1cc2cnc(NC)nc2n(CCCN)c1=O` [Example I-131, 8-(3-aminopropyl)-6-[2-ethyl-4-(6-methylpyrazin-2-yl)phenyl]-2-(methylamino)pyrido[2,3-d]pyrimidin-7-one], the Ki turned out to be 32.5 nM.

Turning to `CNc1ncc2cc(-c3ccc(-c4cncc(C)n4)cc3Cl)c(=O)n(CC(=O)NCCN)c2n1` [Example I-156, N-(2-aminoethyl)-2-[6-[2-chloro-4-(6-methylpyrazin-2-yl)phenyl]-2-(methylamino)-7-oxo-pyrido[2,3-d]pyrimidin-8-yl]acetamide], the Ki is 14.4 nM.
